Entries after “also recorded” stand apart in the source; their conditions may differ. No end group written: not given here.
Columns and labels:
[1] = test system: corneal epithelium; assay: In vivo corneal epithelium debridement wound healing in Lum−/− mice, peptide eye drops; parameters: species or system C57BL/6 genetic background; details: drops 0.3 μM every 15 min for 5 h
Description: Lum null (Lum^−/−) mice were also used to examine the efficacy of LumC peptides in promoting epithelium sheet migration following debridement wound (Supplemental Fig. S2).
(§1) Use of experimental mice is in compliance to the ARVO statement for the use of animals in vision research and all procedures are approved by IACUC of the University of Cincinnati. Lum^−/− mice in C57BL/6 genetic background aged 7–8 weeks were used in this study. Mice were anesthetized with intraperitoneal injections of a combination of ketamine (10 mg/kg; Henry Shein) and xylazine (1 mg/kg; Henry Shein) prior to the surgery, and a drop of proparacaine hydrochloride 0.5% (Alcon) was applied to the cornea to deliver local anesthesia before injury. Briefly, a 2 mm diameter trephine was used to demarcate the central epithelial region of the eye and the epithelium within the demarcated region was mechanically removed using an Algerbrush II (Alger Equipment Co., Inc., Lago Vista, TX) while viewing the cornea under a stereomicroscope (Stemi SC II stereomicroscope with epi-fluorescence attachment, Carl ZEISS). Eight mice per group were treated and the experiments were repeated at least two times. Each mouse was topically treated with one drop peptide solution (10 μl) at concentration of 0.3 μM or 10 μL PBS every 15 min for 5 h after wounding. After 5 h, mice were sacrificed. The eyes were excised and fixed in 4% paraformaldehyde in PB (0.1 M phosphate buffer, pH 7.4. whole mount corneas were stained with phalloidin and DAPI and image with a Zeiss Apo Tome microscope (Observer Z1). The migration of epithelium sheet was determined as previously described. In brief, migrated corneal epithelium was measured on whole mount samples in 5 different locations equally distributed around the entire circumference of the wound. The number of animals in each experimental group is on the bars in the bar chart. The statistical analyses as well as symbols are shown in the graph legend. PBS treated Lum^−/− mice were used as negative controls, in which the epithelium sheet migrated less than 50 μm in 5 h (Supplemental Fig. 2 for representative plots). Four Z-staged images were collected from each corneas, the epithelium migration was determined by the distance of migration of epithelium front to the initial injured line as previously described.

[2] = target: T1, ALK5 (Homo sapiens, UniProt P36897); assay: kcat/Km of peptides and loss of binding outside EVTLN region; details: method not described
T1 sequence (P36897 34-503): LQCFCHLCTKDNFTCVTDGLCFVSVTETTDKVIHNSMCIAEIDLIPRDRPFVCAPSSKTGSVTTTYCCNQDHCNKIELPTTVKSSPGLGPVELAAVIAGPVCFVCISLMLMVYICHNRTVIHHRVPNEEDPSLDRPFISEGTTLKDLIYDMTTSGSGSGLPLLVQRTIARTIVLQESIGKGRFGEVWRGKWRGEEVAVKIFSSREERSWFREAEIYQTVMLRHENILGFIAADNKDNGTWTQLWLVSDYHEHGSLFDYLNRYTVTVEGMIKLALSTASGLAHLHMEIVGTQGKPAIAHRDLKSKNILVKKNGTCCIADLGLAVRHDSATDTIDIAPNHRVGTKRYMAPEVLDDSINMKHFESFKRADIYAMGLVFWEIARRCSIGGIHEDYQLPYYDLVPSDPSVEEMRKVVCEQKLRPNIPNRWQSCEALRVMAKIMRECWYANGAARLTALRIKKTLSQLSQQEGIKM

[3] = test system: corneal epithelium; assay: In vivo corneal epithelium debridement wound healing in mice, peptide eye drops; parameters: species or system mouse; details: for promotion of corneal epithelium wound healing: debridement wound, eye drops 0.3 μM every 15 min for 5 h
Protocol: To confirm peptide action promoting corneal epithelium wound healing in vivo, mice were subjected to a 2 mm with corneal epithelium debridement. The injured corneas were treated with 10 μl eye drops lumican peptides (0.3 μM) every 15 min for 5 h as previously described. Migration distance was measured between the original wound edge and the wound front. In Lumikine (LumC13C-A) treated corneas, the epithelium sheet moved ∼144 μm. […] The average epithelium migration (μm) and standard deviation were calculated from n corneas of each of two separate experiments.
as §1

[4] = target: T1, ALK5; details: cited from earlier work
Description: Proteoglycans (PGs) are complex polymers composed of a core protein to which one or more glycosaminoglycan (GAGs) chains are covalently attached. They play a central role in physiology and disease[1][2][3][4][5][6]: modulating cell metabolism, mediating cell-cell trafficking, providing support for connective tissue and regulating of a wide range of effectors at both systemic and cellular levels. Small leucine rich proteoglycans (SLRPs) are a family of proteoglycans with small core proteins (~40 Kd) that contain hyper variable glycosylation sites with multivalent binding abilities. […] In this present study, we have accessed the binding of rationally designed LumC peptides with a related scoring approach, MM-GBSA, after docking and molecular dynamics simulations. In this method, docking scores are used to define initial binding sites, and more expensive and rigorous methods such as molecular dynamics (MD) simulation and binding free ...

[5] = target: T1, ALK5; assay: Binding affinity (Kd) of designed peptide; details: method not described; highest affinity in all designed peptides
[6] = Mass spectrometry of LumC13 in solution (dimerization); type: physicochemical; details: peptide in solution
[7] = test system: prostate cancer cell; details: cited from earlier work
Description: This could be of particular interest in conditions where patients display delayed wound healing, such as diabetes, which culminates in an increased risk of inflammation and scarring. The significance of synthesizing lumican peptides that mediate TGFbRI signaling also goes beyond promoting skin and corneal wound healing.

**Q.** With “LPPDMYECLRVAN [LumC18ΔC5, Lumican peptide …]” as the substance, how does the “promotion of epithelium wound healing / migration” value [1] read?
**A.** Its value is “little effect promoting wound healing”.

**Q.** For “IKHLRLDGEVTLN [Hybrid 1/3, hybrid peptide …]”, which “promotion of epithelium wound healing / migration” value [1] is on record?
**A.** Its value is “little effect promoting wound healing”.

**Q.** Which kcat/Km [2] does the source give for “IKHLRLDGNRISE [LumC33ΔC20, Lumican peptide …; control peptide]” here?
**A.** The kcat/Km was less than 100 M⁻¹ s⁻¹.

**Q.** What about the “promotion of epithelium wound healing / migration” value [1] of the same substance?
**A.** Its value is “little effect promoting wound healing”.

**Q.** And the “promotion of corneal epithelium wound healing” value [3]?
**A.** Its value is “did not promote epithelium wound healing”.

**Q.** For “YEALRVANEVTLN [LumC13C-A, Lumican peptide … (Lumikine)]”, which “binding to ALK5 to promote wound healing” value ([4]; synthetic LumC13-terminal peptide YEALRVANEVTLN) is on record?
**A.** Its value is “binding ALK5 to promote wound healing”.

**Q.** What about the “promotion of epithelium wound healing / migration” value [1] of the same substance?
**A.** The value was “promoted wound healing of corneal epithelium debridement of Lum^−/− mice to the same extent as injured wild type mice; also recorded: higher pharmaceutical activity of LumC13C-A compared to LumC13; also recorded: significantly promoted epithelium wound healing”.

**Q.** What about the epithelium migration distance ([3]; 2 mm debridement, 10 μl eye drops 0.3 μM every 15 min for 5 h, between original wound edge and wound front) of the same substance?
**A.** Its epithelium migration distance is roughly 144 μm.

**Q.** And the “promotion of corneal epithelium wound healing” value [3]?
**A.** Its value is “increased ability to promote wound healing”.

**Q.** For LPPDMYECEVTLN [Hybrid 2/3], which Kd [5] is on record?
**A.** Its Kd is 28.7 ± 3.9 µM.

**Q.** For “YECLRVANEVTLN [LumC13, peptide designed from the 13 C-terminal amino acids of lumican, …]”, which kcat/Km [2] is on record?
**A.** The kcat/Km was 1e+06 ± 4000 M⁻¹ s⁻¹.

**Q.** What about the “promotion of epithelium wound healing / migration” value [1] of the same substance?
**A.** The value was “moderately increased activity in promoting wound healing when compared to LumC13C-A”.

**Q.** What about the “promotion of corneal epithelium wound healing” value [3] of the same substance?
**A.** Its value is “increased ability to promote wound healing”.

**Q.** What about the “promotion of epithelial cell migration (words, conclusion)” value ([3]; in vitro and in vivo wound healing assays) of the same substance?
**A.** Its value is “essential to promote epithelial cell migration to the same extent as lumican”.

**Q.** What about the “dimerization in solution via disulfide bond formation” value [6] of the same substance?
**A.** The value was “dimerization of the LumC13 peptides in solution via disulfide bond formation of cysteine residue, which reduces the activity of dimerized LumC13”.

**Q.** For “Lumican: class II SLRP member, one of the major proteoglycans in the corneal stroma”, which “wound healing via C-terminal domain / TGFβRI interaction” value [4] is on record?
**A.** Its value is “promotes wound healing via its C-terminal domain due to its interaction with TGFβRI (ALK5)”.

**Q.** What about the “prostate cancer cell migration” value [7] of the same substance?
**A.** The value was “inhibits prostate cancer cell migration”.

From publication PMC5299588, “Lumican Peptides: Rational Design Targeting ALK5/TGFBRI” (Scientific Reports, 2017)
